From patent US20240116857A1 (St. Louis University, priority 2022, published 2024) come the findings set out here.

The first assay concerns E. coli BW25113. The experiment in a line: MIC, 2-fold broth dilution, E. coli BW25113. Format: cell-based, Escherichia coli. As to conditions: E. coli BW25113; asterisk in column >50.
As for “4,4′-(([1,1′-biphenyl]-4,4′-dicarbonyl)bis(azanediyl))bis(3-hydroxy-N,N,N-trimethylbenzenaminium) [Example 57]”, the “MIC, μM >50” value was “* (>50)”.

Still in this assay, the particulars now being: Escherichia coli; E. coli BW25113; asterisk in column 1-10; read-out: MIC, μM 1-10.
By MIC is commonly meant the least concentration at which growth counts as inhibited. For `C#CCCOc1cc(NC(=O)c2ccc(-c3ccc(C(=O)Nc4ccc([N+](C)(C)C)c(F)c4)cc3)cc2)ccc1[N+](C)(C)C` [Example 103, 2-(but-3-yn-1-yloxy)-4-(4′-((3-fluoro-4-(trimethylammonio)phenyl)carbamoyl)-[1,1′-biphenyl]-4-carboxamido)-N,N,N-trimethylbenzenaminium], the MIC was in the range of 1 to 10 µM. On the same count and under the same terms, then `C#CCCCCCCCCOc1cc(NC(=O)c2ccc(-c3ccc(C(=O)Nc4ccc([N+](C)(C)C)c(F)c4)cc3)cc2)ccc1[N+](C)(C)C` [Example 116], with 1 to 10 µM. On the same count and under the same terms, then `COc1cc(NC(=O)c2ccc(-c3ccc(C(=O)Nc4ccc([N+](C)(C)C)c(F)c4)cc3)cc2)ccc1[N+](C)(C)C` [Example 98, 2-fluoro-4-(4′-((3-methoxy-4-(trimethylammonio)phenyl)carbamoyl)-[1,1′-biphenyl]-4-carboxamido)-N,N,N-trimethylbenzenaminium], with 1 to 10 µM; and `C#CCCCCOc1cc(NC(=O)c2ccc(-c3ccc(C(=O)Nc4ccc([N+](C)(C)C)c(F)c4)cc3)cc2)ccc1[N+](C)(C)C` [Example 96, 2-fluoro-4-(4′-((3-(hex-5-yn-1-yloxy)-4-(trimethylammonio)phenyl)carbamoyl)-[1,1′-biphenyl]-4-carboxamido)-N,N,N-trimethylbenzenaminium], with 1 to 10 µM.

The same assay, now with this note: Escherichia coli; E. coli BW25113; asterisk in column 10-50; read-out: MIC, μM 10-50.
For `C[n+]1ccc(Oc2ccc(NC(=O)c3ccc(C(=O)Nc4ccc(Oc5cc[n+](C)cc5)cc4)c([N+](=O)[O-])c3)cc2)cc1` [Example 84, 4,4′-((((2-nitroterephthaloyl)bis(azanediyl))bis(4,1-phenylene))bis(oxy))bis(1-methylpyridin-1-ium)], the MIC is 10 to 50 µM. On the same count and under the same terms, with `Cc1c[n+](C)ccc1NC(=O)c1ccc(C(=O)Nc2ccc(Nc3cc[n+](C)cc3)cc2)cc1` [Example 55, 1,3-dimethyl-4-(4-((4-((1-methylpyridin-1-ium-4-yl)amino)phenyl)carbamoyl)benzamido)pyridin-1-ium] the figure was 10 to 50 µM. Still for that read-out and setting: with `C[N+](C)(C)c1ccc(NC(=O)c2ccc(-c3ccc(C(=O)Nc4ccc([N+](C)(C)C)cc4)cc3)cc2)cc1` [Example 23, 4,4′-(([1,1′-biphenyl]-4,4′-dicarbonyl)bis(azanediyl))bis(N,N,N-trimethylbenzenaminium)] the figure was 10 to 50 µM.

Still in this assay, the particulars now being: Escherichia coli; E. coli BW25113; asterisk in column >50; read-out: MIC, μM >50.
As for `C[N+](C)(C)c1ccc(NC(=O)c2ccc(-c3ccc(C(=O)Nc4ccc([N+](C)(C)C)c([N+](=O)[O-])c4)cc3)c(S(C)(=O)=O)c2)cc1` [Example 146], the minimal inhibitory concentration (MIC) is > 50 µM. On the same count and under the same terms, then `COC(=O)Cn1cc(CCC[N+](C)(C)c2ccc(NC(=O)c3ccc(-c4ccc(C(=O)Nc5ccc([N+](C)(C)C)c(F)c5)cc4)cc3)cc2F)nn1` [Example 106], with > 50 µM; and `C[N+](C)(C)c1ccc(NC(=O)c2ccc(-c3ccc(C(=O)Nc4ccc([N+](C)(C)CCCc5cn(CCOCCOCCOCCNC(=O)CCCC[C@@H]6SC[C@@H]7NC(=O)N[C@@H]76)nn5)c(F)c4)cc3)cc2)cc1F` [Example 133], with > 50 µM. Same read-out and setting: with `C[n+]1ccc(NC(=O)[C@H]2CC[C@H](C(=O)Nc3cc[n+](C)cc3)CC2)cc1` [Example 6, 4,4′-((E)-cyclohexanedicarbonylbis(azanediyl))bis(1-methylpyridin-1-ium)] the figure was > 50 µM; with `C[n+]1ccc(C(=O)Nc2ccc(-c3ccc(NC(=O)c4cc[n+](C)cc4)cc3)cc2)cc1` [Example 85, 4,4′-(([1,1′-biphenyl]-4,4′-diylbis(azanediyl))bis(carbonyl))bis(1-methylpyridin-1-ium)], > 50 µM. Same read-out and setting: then `CN(C)c1ccc(NC(=O)c2ccc(-c3ccc(C(=O)Nc4ccc(N(C)C)cc4)cc3)cc2)cc1` [Example 22, N^4,N^4′-bis(4-(dimethylamino)phenyl)-[1,1′-biphenyl]-4,4′-dicarboxamide], with > 50 µM; and `CN(C)c1ccc(NC(=O)c2ccc(-c3ccc(C(=O)Nc4ccc(N5CCCCC5)cc4)cc3)cc2)cc1F` [Example 111], with > 50 µM.

As to `C[N+](C)(C)c1ccc(NC(=O)c2ccc(Cc3ccc(C(=O)Nc4ccc([N+](C)(C)C)cc4)cc3)cc2)cc1` [Example 53], the MIC was > 50 µM. Same read-out and setting: with `O=C(Nc1ccc(Nc2ccncc2)cc1)c1ccc(C(=O)Nc2ccc(Nc3ccncc3)cc2)c([N+](=O)[O-])c1` [Example 24, 2-nitro-N^1,N^4-bis(4-(pyridin-4-ylamino)phenyl)terephthalamide] the figure was > 50 µM; with `C#CCCN(C)c1ccc(NC(=O)c2ccc(-c3ccc(C(=O)Nc4ccc(N(C)C)c(F)c4)cc3)cc2)cc1F` [Example 139], > 50 µM; with `COc1cc(Nc2cc[n+](C)cc2)ccc1NC(=O)c1ccc(C(=O)Nc2cc[n+](C)cc2)cc1` [Example 63, 4-(4-((2-methoxy-4-((1-methylpyridin-1-ium-4-yl)amino)phenyl)carbamoyl)benzamido)-1-methylpyridin-1-ium], > 50 µM. The same measure, in the same setting: with `Cc1cc(C(=O)Nc2ccc([N+](C)(C)C)cc2)ccc1-c1ccc(C(=O)Nc2ccc([N+](C)(C)C)cc2)cc1` [Example 42, 4,4′-((2-methyl-[1,1′-biphenyl]-4,4′-dicarbonyl)bis(azanediyl))bis(N,N,N-trimethylbenzenaminium)] the figure was > 50 µM; with `O=C(Nc1ccc(Nc2ccncc2)cc1)c1ccc(C(=O)Nc2ccc(Nc3ccncc3)cc2)c(C(F)(F)F)c1` [Example 41, N^1,N^4-bis(4-(pyridin-4-ylamino)phenyl)-2-(trifluoromethyl)terephthalamide], > 50 µM.

Regarding `C[N+](C)(C)c1ccc(NC(=O)c2ccc(-c3ccc(C(=O)Nc4ccc([N+](C)(C)C)c(OCCCc5cn(CCOCCOCCOCCNC(=O)CCCC[C@@H]6SC[C@@H]7NC(=O)N[C@@H]76)nn5)c4)cc3)cc2)cc1F` [Example 137], the MIC was > 50 µM. For `CN(C)c1ccc(NS(=O)(=O)c2ccc(-c3ccc(S(=O)(=O)Nc4ccc(N(C)C)cc4)cc3)cc2)cc1` [Example 70, N^4, N^4′-bis(4-(dimethylamino)phenyl)-[1,1′-biphenyl]-4,4′-disulfonamide], the MIC is > 50 µM. With `CN(C)C1CCC(NC(=O)c2ccc(-c3ccc(C(=O)NC4CCC(N(C)C)CC4)cc3)cc2)CC1` (centres unmarked) [Example 46, N^4,N^4′-bis(4-(dimethylamino)cyclohexyl)-[1,1′-biphenyl]-4,4′-dicarboxamide], the MIC was > 50 µM. On the same count and under the same terms, then `Cc1cc(NC(=O)c2ccc(-c3ccc(C(=O)Nc4ccnc(C)c4)cc3)cc2)ccn1` [Example 27, N^4,N^4′-bis(2-methylpyridin-4-yl)-[1,1′-biphenyl]-4,4′-dicarboxamide], with > 50 µM. Same read-out and setting: then `O=C(Nc1ccc(-c2ccncc2)cc1)c1ccc(C(=O)Nc2ccc(-c3ccncc3)cc2)cc1` [Example 54, N^1,N^4-bis(4-(pyridin-4-yl)phenyl)terephthalamide], with > 50 µM; and `CN(C)c1ccc(NC(=O)c2ccc(-c3ccc(C(=O)Nc4ccc(N(C)C)c(C#N)c4)cc3C#N)cc2)cc1` [Example 149], with > 50 µM.

For `Cc1cc(C(=O)Nc2ccc(N(C)C)c(F)c2)ccc1-c1ccc(C(=O)Nc2ccc(N(C)C)c(F)c2)cc1` [Example 90, N^4,N^4′-bis(4-(dimethylamino)-3-fluorophenyl)-2-methyl-[1,1′-biphenyl]-4,4′-dicarboxamide], the minimum inhibitory concentration (MIC) is > 50 µM. On the same count and under the same terms, with `O=C(Nc1ccc(Nc2ccncc2)cc1)c1ccc2cc(C(=O)Nc3ccc(Nc4ccncc4)cc3)ccc2c1` [Example 21, N^2,N^6-bis(4-(pyridin-4-ylamino)phenyl)naphthalene-2,6-dicarboxamide] the figure was > 50 µM; with `Cc1cc(C(=O)Nc2ccc(N(C)C)cc2)ccc1-c1ccc(C(=O)Nc2ccc(N(C)C)cc2)cc1` [Example 40, N^4,N^4′-bis(4-(dimethylamino)phenyl)-2-methyl-[1,1′-biphenyl]-4,4′-dicarboxamide], > 50 µM. On the same count and under the same terms, then `C[N+](C)(C)c1ccc(NC(=O)c2ccc(-c3ccc(C(=O)Nc4ccc([N+](C)(C)C)c(F)c4)cc3)cc2)cc1` [Example 130], with > 50 µM; and `C[N+](C)(C)c1ccc(NC(=O)c2ccc(-c3ccc(C(=O)Nc4ccc([N+](C)(C)Cc5cn(CCOCCOCCOCCNC(=O)CCCC[C@@H]6SC[C@@H]7NC(=O)N[C@@H]76)nn5)c(F)c4)cc3)cc2)cc1F` [Example 134], with > 50 µM; and `O=C(Nc1ccc(Nc2ccncc2)cc1)c1ccc(-c2ccccc2)cc1` [Example 15, N-(4-(pyridin-4-ylamino)phenyl)-[1,1′-biphenyl]-4-carboxamide], with > 50 µM. On to `CN(C)c1ccc(NC(=O)c2ccc(-c3ccc(C(=O)Nc4ccc(N(C)C)c([N+](=O)[O-])c4)cc3C#N)cc2)cc1` [Example 148], for which the MIC was > 50 µM. Still for that read-out and setting: with `Cc1cc(NC(=O)c2ccc(-c3ccc(C(=O)Nc4ccc([N+](C)(C)C)c(C)c4)cc3)cc2)ccc1[N+](C)(C)C` [Example 37, 4,4′-(([1,1′-biphenyl]-4,4′-dicarbonyl)bis(azanediyl))bis(N,N,N,2-tetramethylbenzenaminium)] the figure was > 50 µM. On to `O=C(Nc1ccc(Oc2ccncc2)cc1)c1ccc(C(=O)Nc2ccc(Oc3ccncc3)cc2)cc1` [Example 11, N^1,N^4-bis(4-(pyridin-4-yloxy)phenyl)terephthalamide], for which the MIC is > 50 µM. Consider `O=C(Nc1ccc(Nc2ccncc2)cc1)[C@H]1CC[C@H](C(=O)Nc2ccc(Nc3ccncc3)cc2)CC1` [Example 60, (E)-N^1,N^4-bis(4-(pyridin-4-ylamino)phenyl)cyclohexane-1,4-dicarboxamide], for which the MIC is > 50 µM. Regarding `CN(C)c1ccc(NC(=O)c2ccc(-c3ccc(C(=O)Nc4ccc(N(C)C)c(Br)c4)cc3)cc2)cc1Br` [Example 80, N^4,N^4′-bis(3-bromo-4-(dimethylamino)phenyl)-[1,1′-biphenyl]-4,4′-dicarboxamide], the MIC was > 50 µM.
